Format in all cases: cell-based
In test [1] the test system is Aspergillus flavus. Description: MIC, YAG medium. Particulars: 24 h at 35° C, MIC banded into grades; for MIC: Aspergillus flavus, 24 h, read-out: MIC grade, A. flavus. The method in brief: (§1)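 MICs (mg/L) derive from the lowest compound concentration suppressing spore outgrowth by >70% against a drug-free well, by OD 485 nm. Conditions: YAG medium, 1−2×10^4 cfu/mL, 24 h, 35° C, two-fold dilutions from 50 mg/L.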

Test [2] relates to Aspergillus niger. Nature of the test: MIC, YAG medium. Particulars: 24 h at 35° C, MIC banded into grades; for MIC: Aspergillus niger, read-out: MIC grade, A. niger. The method in brief:
as §1

Test [3] has as its system Aspergillus fumigatus AF210. Description: MIC, YAG medium. As to conditions: 24 h at 35° C, MIC banded into grades; for MIC: Aspergillus fumigatus, read-out: MIC grade, A. fumigatus 210. The gist of the method:
as §1

Test [4] has as its system Aspergillus fumigatus AF293. Nature of the test: MIC, YAG medium. As to conditions: 24 h at 35° C, MIC banded into grades; for MIC: Aspergillus fumigatus, read-out: MIC grade, A. fumigatus. The method in brief:
as §1

In test [5] the test system is Aspergillus terreus AT4. Description: MIC, YAG medium. Particulars: 24 h at 35° C, MIC banded into grades; for MIC: Aspergillus terreus, read-out: MIC grade, A. terreus. The gist of the method:
as §1

In test [6] the test system is Aspergillus terreus AT49. Nature of the test: MIC, YAG medium. As to conditions: 24 h at 35° C, MIC banded into grades; for MIC: Aspergillus terreus, read-out: MIC grade, A. terreus 49. The gist of the method:
as §1

The subject of test [7] is Aspergillus flavus. Description: MIC, RPMI medium. Particulars: MIC banded into grades; for MIC: Aspergillus flavus, read-out: MIC grade, A. flavus. The gist of the method: (§2)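 RPMI (2% glucose, 0.135 M MOPS, pH 7.0) microdilution; drug 50-0.05 mg/L doubling series; inoculum 1−2×10^4 cfu/mL; 24-48 h, 35° C; OD485; MIC = lowest conc. with >80% inhibition vs drug-free control.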

Test [8] relates to Aspergillus niger. Nature of the test: MIC, RPMI medium. Particulars: MIC banded into grades; for MIC: Aspergillus niger, read-out: MIC grade, A. niger. The method in brief: as §2
The subject of test [9] is Aspergillus fumigatus AF210. Nature of the test: MIC, RPMI medium. As to conditions: for MIC: Aspergillus fumigatus, AF210, MIC banded into grades, read-out: MIC grade, A. fumigatus 210. The method in brief: as §2
Test [10] relates to Aspergillus fumigatus AF293. Description: MIC, RPMI medium. As to conditions: for MIC: Aspergillus fumigatus, AF293, MIC banded into grades, read-out: MIC grade, A. fumigatus. The gist of the method: as §2
Test [11] relates to Aspergillus terreus AT4. Description: MIC, RPMI medium. As to conditions: for MIC: Aspergillus terreus, AT4, MIC banded into grades, read-out: MIC grade, A. terreus. The method in brief: as §2
The subject of test [12] is Aspergillus terreus AT49. Description: MIC, RPMI medium. Particulars: for MIC: Aspergillus terreus, AT49, MIC banded into grades, read-out: MIC grade, A. terreus 49. The method in brief:
as §2

Nine molecules from patent US8993574B2, “Pyrrole antifungal agents” (F2G Ltd, priority 2008, dated 2015) can be followed below.

Structures are written as SMILES. ≈ marks a conversion by molar mass, not a printed value. Bounds are passed on as bounds.

By MIC is commonly meant the lowest concentration that inhibits growth of the organism. `Cc1cc(C)nc(N2CCN(c3ccc(NC(=O)C(=O)c4c(-c5ccccc5)cc(C)n4CCO)cc3)CC2)c1` [Example 64, N-{4-[4-(4,6-Dimethyl-pyridin-2-yl)-piperazin-1-yl]-phenyl}-2-[1-(2-hydroxy-ethyl)-5-methyl-3-phenyl-1H-pyrrol-2-yl]-2-oxo-acetamide]: the MIC (in the test with Aspergillus flavus [1]; in the test on Aspergillus niger [2]; in test [3]; in test [4]; in the test on Aspergillus terreus AT4 [5]; in the test with Aspergillus terreus AT49 [6]) was less than 1 µg/mL throughout. Moreover, the MIC in the test on Aspergillus flavus [7] was 1 to 10 µg/mL (≈ 1.86 to 18.6 µM); in the test on Aspergillus niger [8] it was less than 1 µg/mL; in test [9], less than 1 µg/mL; in test [10] it was less than 1 µg/mL; with Aspergillus terreus AT4 [11], 1 to 10 µg/mL (≈ 1.86 to 18.6 µM); in the test with Aspergillus terreus AT49 [12], less than 1 µg/mL.
As to `CCCn1c(C)cc(-c2ccccc2)c1C(=O)C(=O)Nc1ccc(N2CCN(c3cc(C)cc(C)n3)CC2)cc1` [Example 35, N-{4-[4-(4,6-Dimethyl-pyridin-2-yl)-piperazin-1-yl]-phenyl}-2-(5-methyl-3-phenyl-1-propyl-1H-pyrrol-2-yl)-2-oxo-acetamide], the MIC (in the test with Aspergillus flavus [1]; in the test with Aspergillus niger [2]; in test [3]; in test [4]; in the test on Aspergillus terreus AT4 [5]; in the test with Aspergillus terreus AT49 [6]) was less than 1 µg/mL in each case. For the same molecule, the MIC (in the test on Aspergillus flavus [7]; with Aspergillus niger [8]; in test [9]; in test [10]; in the test on Aspergillus terreus AT4 [11]; in the test on Aspergillus terreus AT49 [12]) was less than 1 µg/mL each time.
With `Cc1cc(-c2ccccc2)c(C(=O)C(=O)Nc2ccc(N3CCN(C(C)Cc4ccco4)CC3)cc2)n1C` (stereo not drawn) [Example 152, 2-(1,5-Dimethyl-3-phenyl-1H-pyrrol-2-yl)-N-{4-[4-(2-furan-2-yl-1-methyl-ethyl)-piperazin-1-yl]-phenyl}-2-oxo-acetamide], the MIC (in the test on Aspergillus flavus [1]; in the test on Aspergillus niger [2]; in test [3]; in test [4]; in the test on Aspergillus terreus AT4 [5]; with Aspergillus terreus AT49 [6]) was less than 1 µg/mL each time. In addition, the MIC (with Aspergillus flavus [7]; in the test on Aspergillus niger [8]; in test [9]; in test [10]; with Aspergillus terreus AT4 [11]; in the test on Aspergillus terreus AT49 [12]) was less than 1 µg/mL in each case.
As for `COCCn1c(C)cc(-c2ccccc2)c1C(=O)C(=O)Nc1cccc2cnccc12` [Example 30, N-Isoquinolin-5-yl-2-[1-(2-methoxy-ethyl)-5-methyl-3-phenyl-1H-pyrrol-2-yl]-2-oxo-acetamide], the MIC in the test with Aspergillus flavus [1] is 1 to 10 µg/mL (≈ 2.42 to 24.2 µM); with Aspergillus niger [2] it was more than 10 µg/mL; in [3], 1 to 10 µg/mL (≈ 2.42 to 24.2 µM); in test [4], 1 to 10 µg/mL (≈ 2.42 to 24.2 µM); in the test with Aspergillus terreus AT4 [5] it was 1 to 10 µg/mL (≈ 2.42 to 24.2 µM); in the test with Aspergillus terreus AT49 [6] it was 1 to 10 µg/mL (≈ 2.42 to 24.2 µM). For the same molecule, the MIC (with Aspergillus flavus [7]; with Aspergillus niger [8]; in test [9]; in test [10]; in the test with Aspergillus terreus AT4 [11]; in the test with Aspergillus terreus AT49 [12]) was more than 10 µg/mL each time.
Take `Cc1cc(-c2ccccc2)c(C(=O)C(=O)Nc2cnc3ccccc3c2)n1C` [Example 37, 2-(1,5-Dimethyl-3-phenyl-1H-pyrrol-2-yl)-2-oxo-N-quinolin-3-yl-acetamide]: the MIC (with Aspergillus flavus [1]; in the test with Aspergillus niger [2]; in [3]; in test [4]; in the test with Aspergillus terreus AT4 [5]; with Aspergillus terreus AT49 [6]) was less than 1 µg/mL each time. Further, the MIC with Aspergillus flavus [7] was less than 1 µg/mL; with Aspergillus niger [8], 1 to 10 µg/mL (≈ 2.71 to 27.1 µM); in [9], 1 to 10 µg/mL (≈ 2.71 to 27.1 µM); in test [10], 1 to 10 µg/mL (≈ 2.71 to 27.1 µM); in the test with Aspergillus terreus AT4 [11], less than 1 µg/mL; with Aspergillus terreus AT49 [12], less than 1 µg/mL.
Regarding `Cc1cc(C)nc(N2CCN(c3ccc(NC(=O)C(=O)c4cc(-c5ccccc5)c5n4CCCCC5)cc3)CC2)c1` [41 b], the “MIC grade, A. flavus” value in the test with Aspergillus flavus [1] and against Aspergillus flavus [7] was 1 (a grade of 1 represents an MIC of greater than 10 mg/L) in each case. The “MIC grade, A. niger” value against Aspergillus niger [2] and in the test on Aspergillus niger [8] was 1 (a grade of 1 represents an MIC of greater than 10 mg/L) throughout. Also, the “MIC grade, A. fumigatus 210” value in test [3] is given as 2 (A grade of 2 represents an MIC of from 1 to 10 mg/L); in [9] (MIC banded into grades), 1 (a grade of 1 represents an MIC of greater than 10 mg/L). Besides, the “MIC grade, A. fumigatus” value in [4] and in test [10] (MIC banded into grades) was 2 (A grade of 2 represents an MIC of from 1 to 10 mg/L) each time. In addition, the “MIC grade, A. terreus” value against Aspergillus terreus AT4 [5] and against Aspergillus terreus AT4 [11] (MIC banded into grades) was 1 (a grade of 1 represents an MIC of greater than 10 mg/L) each time. Also, the “MIC grade, A. terreus 49” value in the test on Aspergillus terreus AT49 [6] and in the test on Aspergillus terreus AT49 [12] (MIC banded into grades) was 1 (a grade of 1 represents an MIC of greater than 10 mg/L) in each case.
`Cc1cc(-c2ccccc2)c(C(=O)C(=O)Nc2ccc(-c3ncco3)c(F)c2)n1C` [Example 148, 2-(1,5-Dimethyl-3-phenyl-1H-pyrrol-2-yl)-N-[3-fluoro-4-oxazole-2-yl-phenyl)-2-oxo-acetamide]: the MIC (with Aspergillus flavus [1]; with Aspergillus niger [2]; in [3]; in [4]; in the test on Aspergillus terreus AT4 [5]; with Aspergillus terreus AT49 [6]) was less than 1 µg/mL in each case. Moreover, the MIC was less than 1 µg/mL in the test with Aspergillus flavus [7]; less than 1 µg/mL with Aspergillus niger [8]; 1 to 10 µg/mL (≈ 2.48 to 24.8 µM) in [9]; less than 1 µg/mL in test [10]; less than 1 µg/mL with Aspergillus terreus AT4 [11]; less than 1 µg/mL in the test with Aspergillus terreus AT49 [12].
For the molecule `Cc1cc(-c2ccccc2)c(C(=O)C(=O)Nc2ccc(N3CCN(c4ccc(CN5CCOCC5)cn4)CC3)cc2)n1C` [Example 120, 2-(1,5-Dimethyl-3-phenyl-1H-pyrrol-2-yl)-N-{4-[4-(5-morpholin-4-ylmethyl-pyridin-2-yl)-piperazin-1-yl]-phenyl}-2-oxo-acetamide], the MIC (with Aspergillus flavus [1]; in the test on Aspergillus niger [2]; in test [3]; in test [4]; in the test with Aspergillus terreus AT4 [5]; with Aspergillus terreus AT49 [6]) was less than 1 µg/mL each time. Besides, the minimal inhibitory concentration (MIC) (in the test with Aspergillus flavus [7]; with Aspergillus niger [8]; in test [9]; in [10]; in the test with Aspergillus terreus AT4 [11]; with Aspergillus terreus AT49 [12]) was less than 1 µg/mL in each case.
With `Cc1cc(C)nc(N2CCN(c3ccc(NC(=O)C(=O)c4c(-c5ccccc5)cc5n4CCOC5)cc3)CC2)c1` [Example 7, N-{4-[4-(4,6-Dimethyl-pyridin-2-yl)-piperazin-1-yl]-phenyl}-2-oxo-2-(7-phenyl-3,4-dihydro-1H-pyrrolo[2,1-c][1,4]oxazin-6-yl)-acetamide], the MIC (with Aspergillus flavus [1]; with Aspergillus niger [2]; in test [3]; in test [4]; in the test with Aspergillus terreus AT4 [5]; in the test on Aspergillus terreus AT49 [6]) was less than 1 µg/mL each time. Moreover, the minimal inhibitory concentration (MIC) (with Aspergillus flavus [7]; in the test with Aspergillus niger [8]; in test [9]; in test [10]; in the test on Aspergillus terreus AT4 [11]; in the test with Aspergillus terreus AT49 [12]) was less than 1 µg/mL each time.
